Reference: PubChem BioAssay AID248 (DTP/NCI, 2004)
Where “and” joins values, the source holds several entries; their conditions need not be identical. Equal entries are not always repeated. Toxic doses and inconclusive results are not listed. No stated cut-off is given here; in the data, active means T/C of 150% or more; inactive means T/C below 125%.

Tested on: L1210 leukemia ip in BDF1 mice, survival T/C
Experiment: NCI In Vivo Anticancer Drug Screen. Data for tumor model L1210 Leukemia (intraperitoneal) in B6D2F1 (BDF1) mice
Conditions: endpoint: mean survival time, higher = longer survival
Procedure, shortened: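 Read-out is survival time, reported as the treated-group measurement over the vehicle-control measurement.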

[1] = dose: 100.0 mg/kg/injection, schedule: Q01DX001 (ip), vehicle: saline
[2] = dose: 100.0 mg/kg/injection, schedule: Q01DX009 (ip), vehicle: Klucel (hydroxypropylcellulose) (HPC)
[3] = dose: 100.0 mg/kg/injection, schedule: Q01DX009 (ip), vehicle: saline with Tween-80
[4] = dose: 100.0 mg/kg/injection, schedule: Q04DX003 (ip), vehicle: saline
[5] = dose: 200.0 mg/kg/injection, schedule: Q01DX001 (ip), vehicle: saline
[6] = dose: 200.0 mg/kg/injection, schedule: Q01DX009 (ip), vehicle: Klucel (hydroxypropylcellulose) (HPC)
[7] = dose: 200.0 mg/kg/injection, schedule: Q01DX009 (ip), vehicle: saline with Tween-80
[8] = dose: 200.0 mg/kg/injection, schedule: Q04DX003 (ip), vehicle: saline
[9] = dose: 400.0 mg/kg/injection, schedule: Q01DX009 (ip), vehicle: Klucel (hydroxypropylcellulose) (HPC)
[10] = dose: 400.0 mg/kg/injection, schedule: Q04DX003 (ip), vehicle: saline
[11] = dose: 100.0 mg/kg/injection, schedule: Q04DX003 (ip), vehicle: Klucel (hydroxypropylcellulose) (HPC)
[12] = dose: 200.0 mg/kg/injection, schedule: Q04DX003 (ip), vehicle: Klucel (hydroxypropylcellulose) (HPC)
[13] = dose: 400.0 mg/kg/injection, schedule: Q04DX003 (ip), vehicle: Klucel (hydroxypropylcellulose) (HPC)

Measured: T/C

O=C(NO)c1ccccc1
active: [9] 168 % of control | dose: 400.0 mg/kg/injection, schedule: Q01DX009 (ip), vehicle: acetone 153 % of control | dose: 450.0 mg/kg/injection, schedule: Q01DX015 (ip), vehicle: saline 153 % of control | dose: 600.0 mg/kg/injection, schedule: Q01DX009 (ip), vehicle: saline 159 % of control
inactive: dose: 25.0 mg/kg/injection, schedule: Q03HX032 (ip), vehicle: saline 97 % of control | dose: 38.0 mg/kg/injection, schedule: Q03HX032 (ip), vehicle: saline 95 % of control | dose: 50.0 mg/kg/injection, schedule: Q01DX009 (ip), vehicle: Klucel (hydroxypropylcellulose) (HPC) 90 % of control | dose: 50.0 mg/kg/injection, schedule: Q01DX009 (ip), vehicle: saline with Tween-80 98 % of control | dose: 57.0 mg/kg/injection, schedule: Q01DX015 (ip), vehicle: saline 92 % of control | dose: 57.0 mg/kg/injection, schedule: Q03HX032 (ip), vehicle: saline 100 % of control | dose: 62.0 mg/kg/injection, schedule: Q03HX024 (ip), vehicle: saline 96 % of control | dose: 85.0 mg/kg/injection, schedule: Q01DX015 (ip), vehicle: saline 90 % of control | dose: 85.0 mg/kg/injection, schedule: Q03HX032 (ip), vehicle: saline 98 % of control and 100 % of control | [1] 95 % of control | [2] 97 % of control and 113 % of control | dose: 100.0 mg/kg/injection, schedule: Q01DX009 (ip), vehicle: acetone 98 % of control | [3] 96 % of control | [4] 103 % of control | dose: 125.0 mg/kg/injection, schedule: Q03HX024 (ip), vehicle: saline 91 % of control | dose: 130.0 mg/kg/injection, schedule: Q01DX015 (ip), vehicle: saline 100 % of control | dose: 130.0 mg/kg/injection, schedule: Q03HX032 (ip), vehicle: saline 98 % of control | dose: 177.0 mg/kg/injection, schedule: Q01DX009 (ip), vehicle: saline 100 % of control | dose: 178.0 mg/kg/injection, schedule: Q01DX009 (ip), vehicle: saline with Tween-80 110 % of control | [5] 92 % of control | [6] 115 % of control and 124 % of control | dose: 200.0 mg/kg/injection, schedule: Q01DX009 (ip), vehicle: acetone 98 % of control | [7] 112 % of control | dose: 200.0 mg/kg/injection, schedule: Q01DX015 (ip), vehicle: saline 97 % of control and 113 % of control | [8] 108 % of control | dose: 264.0 mg/kg/injection, schedule: Q01DX009 (ip), vehicle: acetone 120 % of control | dose: 264.0 mg/kg/injection, schedule: Q01DX009 (ip), vehicle: saline 123 % of control | dose: 264.0 mg/kg/injection, schedule: Q04DX003 (ip), vehicle: saline 105 % of control and 112 % of control | dose: 266.0 mg/kg/injection, schedule: Q01DX009 (ip), vehicle: saline with Tween-80 113 % of control | dose: 300.0 mg/kg/injection, schedule: Q01DX015 (ip), vehicle: saline 121 % of control | [10] 117 % of control and 91 % of control

CCN(CC)CCCC(C)Nc1ccnc(C)c1 (configuration not stated)
inactive: dose: 10.0 mg/kg/injection, schedule: Q04DX003 (ip), vehicle: other 100 % of control | dose: 20.0 mg/kg/injection, schedule: Q04DX003 (ip), vehicle: other 95 % of control | dose: 40.0 mg/kg/injection, schedule: Q04DX003 (ip), vehicle: other 94 % of control

CC1=NCC[N-]CC[N-]CCN=C(C)C2CCCC1[N-]2.[Mn+3]
inactive: dose: 10.0 mg/kg/injection, schedule: Q01DX001 (ip), vehicle: saline 105 % of control | dose: 20.0 mg/kg/injection, schedule: Q01DX001 (ip), vehicle: saline 102 % of control | dose: 40.0 mg/kg/injection, schedule: Q01DX001 (ip), vehicle: saline 102 % of control

C=Cc1ccc(C(=O)O)cc1
inactive: dose: 100.0 mg/kg/injection, schedule: Q04DX002 (ip), vehicle: saline with Tween-80 98 % of control | dose: 200.0 mg/kg/injection, schedule: Q04DX002 (ip), vehicle: saline with Tween-80 98 % of control | dose: 400.0 mg/kg/injection, schedule: Q04DX002 (ip), vehicle: saline with Tween-80 106 % of control

Cc1cccc(C)c1NC(=O)C(Cl)c1ccccc1 (configuration not stated)
inactive: [2] 107 % of control | [11] 98 % of control | [6] 91 % of control | [12] 98 % of control | [9] 98 % of control | [13] 98 % of control

CCO/C(C)=C(/C#N)c1ccc(Cl)cc1
inactive: dose: 12.5 mg/kg/injection, schedule: Q01DX009 (ip), vehicle: gum acacia 104 % of control | dose: 25.0 mg/kg/injection, schedule: Q01DX009 (ip), vehicle: gum acacia 104 % of control | dose: 50.0 mg/kg/injection, schedule: Q01DX009 (ip), vehicle: gum acacia 102 % of control

COC(=O)CCC(=O)c1ccc(Cl)cc1
inactive: dose: 100.0 mg/kg/injection, schedule: Q01DX009 (ip), vehicle: gum acacia 98 % of control | dose: 100.0 mg/kg/injection, schedule: Q04DX003 (ip), vehicle: gum acacia 100 % of control | dose: 200.0 mg/kg/injection, schedule: Q01DX009 (ip), vehicle: gum acacia 97 % of control | dose: 200.0 mg/kg/injection, schedule: Q04DX003 (ip), vehicle: gum acacia 96 % of control | dose: 400.0 mg/kg/injection, schedule: Q01DX009 (ip), vehicle: gum acacia 101 % of control | dose: 400.0 mg/kg/injection, schedule: Q04DX003 (ip), vehicle: gum acacia 102 % of control

CC(=O)NOCc1ccc(Cl)cc1
inactive: [11] 100 % of control | [12] 95 % of control | [13] 95 % of control

O=C(c1ccccc1)c1ccc2c3c(cccc13)C(=O)c1ccccc1-2
inactive: dose: 100.0 mg/kg/injection, schedule: Q01DX001 (ip), vehicle: saline with Tween-80 92 % of control | dose: 200.0 mg/kg/injection, schedule: Q01DX001 (ip), vehicle: saline with Tween-80 92 % of control | dose: 400.0 mg/kg/injection, schedule: Q01DX001 (ip), vehicle: saline with Tween-80 88 % of control

N#CCCOCCOCCC#N
inactive: [4] 109 % of control | [8] 101 % of control | [10] 95 % of control

CN(C)C(=O)Sc1c(Cl)cc(Cl)cc1S(=O)(=O)F
inactive: [2] 97 % of control | [6] 100 % of control | [9] 97 % of control

Clc1ccc(-c2cc(=[N+]3CC[N+](=c4cc(-c5ccc(Cl)cc5)ss4)CC3)ss2)cc1
inactive: dose: 50.0 mg/kg/injection, schedule: Q01DX009 (ip), vehicle: water 102 % of control | dose: 100.0 mg/kg/injection, schedule: Q01DX009 (ip), vehicle: water 89 % of control | dose: 100.0 mg/kg/injection, schedule: Q04DX003 (ip), vehicle: water 106 % of control | dose: 200.0 mg/kg/injection, schedule: Q01DX009 (ip), vehicle: water 105 % of control | dose: 200.0 mg/kg/injection, schedule: Q04DX003 (ip), vehicle: water 104 % of control | dose: 400.0 mg/kg/injection, schedule: Q04DX003 (ip), vehicle: water 107 % of control

c1ccc2sccc2c1
inactive: [3] 110 % of control | [7] 111 % of control | dose: 400.0 mg/kg/injection, schedule: Q01DX009 (ip), vehicle: saline with Tween-80 116 % of control

C(=C\C[n+]1ccccc1)/C[n+]1ccccc1
inactive: dose: 50.0 mg/kg/injection, schedule: Q01DX001 (ip), vehicle: saline 106 % of control | [1] 112 % of control | [5] 106 % of control

CC(NC(=O)NCCCl)C1CC1 (configuration not stated)
inactive: dose: 100.0 mg/kg/injection, schedule: Q01DX001 (ip), vehicle: Klucel (hydroxypropylcellulose) (HPC) 106 % of control | [11] 97 % of control | dose: 200.0 mg/kg/injection, schedule: Q01DX001 (ip), vehicle: Klucel (hydroxypropylcellulose) (HPC) 103 % of control | [12] 100 % of control | dose: 400.0 mg/kg/injection, schedule: Q01DX001 (ip), vehicle: Klucel (hydroxypropylcellulose) (HPC) 103 % of control | [13] 90 % of control

CCCCCCCCCCCC(=O)[O][Pb]([CH2]C)([CH2]C)[CH2]C
inactive: dose: 6.25 mg/kg/injection, schedule: Q04DX003 (ip), vehicle: saline with Tween-80 101 % of control | dose: 12.5 mg/kg/injection, schedule: Q04DX003 (ip), vehicle: saline with Tween-80 102 % of control | dose: 100.0 mg/kg/injection, schedule: Q04DX003 (ip), vehicle: saline with Tween-80 106 % of control
